Measurements taken from patent publication US7592345B2, “Piperazine and [1,4]diazepan derivatives as NK antagonists” (Hoffmann-La Roche Inc., priority 2007, dated 2009).
pKi: −log10 of the molar value.

These compounds were tested against T1, recombinant human NK3 receptor (Homo sapiens, UniProt P29371) (assay: [3H]SR142801 competition binding assay). Details: [3H]SR142801, membranes from HEK293 cells transiently expressing recombinant human NK3 receptor; read-out: hNK3 Ki.
T1 construct: expressed in transfected cells; host or cells: HEK293 cells (transient expression), membranes
T1 sequence (P29371 1-465): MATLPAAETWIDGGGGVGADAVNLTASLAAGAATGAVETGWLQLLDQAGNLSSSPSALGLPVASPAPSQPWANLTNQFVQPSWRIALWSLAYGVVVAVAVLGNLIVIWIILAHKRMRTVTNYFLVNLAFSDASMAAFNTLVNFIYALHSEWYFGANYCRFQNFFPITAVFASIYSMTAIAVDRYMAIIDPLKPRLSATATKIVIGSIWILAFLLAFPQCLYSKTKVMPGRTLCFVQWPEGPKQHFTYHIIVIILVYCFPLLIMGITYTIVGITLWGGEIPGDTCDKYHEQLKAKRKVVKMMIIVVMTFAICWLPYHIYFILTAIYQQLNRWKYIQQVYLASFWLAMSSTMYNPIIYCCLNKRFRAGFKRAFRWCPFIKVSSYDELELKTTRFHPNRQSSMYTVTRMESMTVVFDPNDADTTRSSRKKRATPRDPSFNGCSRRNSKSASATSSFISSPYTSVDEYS
Summary of the method: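 Membranes from HEK293 cells transiently expressing human NK3 were incubated 75 min at RT with [3H]SR142801 at its KD and inhibitor (0.0003-10 μM) in Tris-HCl pH 7.4/MnCl2/phosphoramidon/BSA. Nonspecific binding used 10 μM SB222200. Ki from Hill-fitted IC50 via Cheng-Prusoff, duplicate determinations.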
In the case of `C[C@H]1CN(CCC(C)(C(=O)N(C)Cc2ccc(Cl)cc2)c2ccc(Cl)c(Cl)c2)CCN1S(C)(=O)=O` (stereo partly drawn) [Example 86, N-(4-Chloro-benzyl)-2-(3,4-dichloro-phenyl)-4-((S)-4-methanesulfonyl-3-methyl-piperazin-1-yl)-2,N-dimethyl-butyramide], the pKi was 7.18.
For `C[C@H]1CN(CCC(C)(C(=O)NCc2ccc(N(C)C)cc2)c2ccc(Cl)c(Cl)c2)CCN1S(C)(=O)=O` (stereo partly drawn) [Example 68, 2-(3,4-Dichloro-phenyl)-N-(4-dimethylamino-benzyl)-4-((S)-4-methanesulfonyl-3-methyl-piperazin-1-yl)-2-methyl-butyramide], the pKi was 6.13.
In the case of `CN(Cc1ccc(C(F)(F)F)cc1)C(=O)C(CCN1CCN(S(C)(=O)=O)CC1)c1ccc(Cl)c(Cl)c1` (stereo not drawn) [Example 5, 2-(3,4-Dichloro-phenyl)-4-(4-methanesulfonyl-piperazin-1-yl)-N-methyl-N-(4-trifluoromethyl-benzyl)-butyramide], the pKi was 6.87.
`COc1cccc(CN(C)C(=O)C(C)(CCN2CCCN(S(C)(=O)=O)CC2)c2ccc(Cl)c(Cl)c2)c1` (stereo not drawn) [Example 120, 2-(3,4-Dichloro-phenyl)-4-(4-methanesulfonyl-[1,4]diazepan-1-yl)-N-(3-methoxy-benzyl)-2,N-dimethyl-butyramide] was tested, and the pKi was 6.97.
Work on `CC(CCN1CCN(S(C)(=O)=O)CC1)(C(=O)NCc1ccc(OC(F)F)cc1)c1ccc(Cl)c(Cl)c1` (stereo not drawn) [Example 13, 2-(3,4-Dichloro-phenyl)-N-(4-difluoromethoxy-benzyl)-4-(4-methanesulfonyl-piperazin-1-yl)-2-methyl-butyramide] yielded a pKi of 6.49.
Work on `C[C@H]1CN(CCC(C)(C(=O)NCc2cccc(OC(F)F)c2)c2ccc(Cl)c(Cl)c2)CCN1S(C)(=O)=O` (stereo partly drawn) [Example 73, 2-(3,4-Dichloro-phenyl)-N-(3-difluoromethoxy-benzyl)-4-((S)-4-methanesulfonyl-3-methyl-piperazin-1-yl)-2-methyl-butyramide] yielded a pKi of 6.52.
`C[C@H]1CN(CCC(C)(C(=O)NCc2ccc(Cl)c(C(F)(F)F)c2)c2ccc(Cl)c(Cl)c2)CCN1S(C)(=O)=O` (stereo partly drawn) [Example 84, N-(4-Chloro-3-trifluoromethyl-benzyl)-2-(3,4-dichloro-phenyl)-4-((S)-4-methanesulfonyl-3-methyl-piperazin-1-yl)-2-methyl-butyramide] was tested, and the pKi was 7.34.
`COc1cc(CN(C)C(=O)C(C)(CCN2CCCN(S(C)(=O)=O)CC2)c2ccc(Cl)c(Cl)c2)ccc1OC(F)F` (stereo not drawn) [Example 108, 2-(3,4-Dichloro-phenyl)-N-(4-difluoromethoxy-3-methoxy-benzyl)-4-(4-methanesulfonyl-[1,4]diazepan-1-yl)-2,N-dimethyl-butyramide] showed a pKi of 7.05.
`C[C@@H]1CN(CCC(C)(C(=O)NCc2cccc(OC(F)(F)F)c2)c2ccc(Cl)c(Cl)c2)CCN1S(C)(=O)=O` (stereo partly drawn) [Example 51, 2-(3,4-Dichloro-phenyl)-4-((R)-4-methanesulfonyl-3-methyl-piperazin-1-yl)-2-methyl-N-(3-trifluoromethoxy-benzyl)-butyramide] showed a pKi of 7.84.
In the case of `COc1cc(CN(C)C(=O)C(C)(CCN2CCN(S(C)(=O)=O)[C@H](C)C2)c2ccc(Cl)c(Cl)c2)ccc1OC(F)F` (stereo partly drawn) [Example 35, 2-(3,4-Dichloro-phenyl)-N-(4-difluoromethoxy-3-methoxy-benzyl)-4-((R)-4-methanesulfonyl-3-methyl-piperazin-1-yl)-2,N-dimethyl-butyramide], the pKi was 6.67.
With `CN(Cc1ccc(C(F)(F)F)nc1)C(=O)C(C)(CCN1CCCN(S(C)(=O)=O)CC1)c1ccc(Cl)c(Cl)c1` (stereo not drawn) [Example 125, 2-(3,4-Dichloro-phenyl)-4-(4-methanesulfonyl-[1,4]diazepan-1-yl)-2,N-dimethyl-N-(6-trifluoromethyl-pyridin-3-ylmethyl)-butyramide] the pKi was 6.56.
`C[C@H]1CN(CCC(C)(C(=O)NCc2cccc(OC(F)(F)F)c2)c2ccc(Cl)c(Cl)c2)CCN1S(C)(=O)=O` (stereo partly drawn) [Example 81, 2-(3,4-Dichloro-phenyl)-4-((S)-4-methanesulfonyl-3-methyl-piperazin-1-yl)-2-methyl-N-(3-trifluoromethoxy-benzyl)-butyramide] gave a pKi of 6.90.
`CC(NC(=O)C(C)(CCN1CCN(S(C)(=O)=O)CC1)c1ccc(Cl)c(Cl)c1)c1ccc(F)cc1` (stereo not drawn) [Example 134, 2-(3,4-Dichloro-phenyl)-N-[1-(4-fluoro-phenyl)-ethyl]-4-(4-methanesulfonyl-piperazin-1-yl)-2-methyl-butyramide] showed a pKi of 6.64.
`COc1ccc(C(NC(=O)C(C)(CCN2CCN(S(C)(=O)=O)[C@@H](C)C2)c2ccc(Cl)c(Cl)c2)C2CC2)cc1` (stereo partly drawn) [Example 63, N-[Cyclopropyl-(4-methoxy-phenyl)-methyl]-2-(3,4-dichloro-phenyl)-4-((S)-4-methanesulfonyl-3-methyl-piperazin-1-yl)-2-methyl-butyramide] was tested, and the pKi was 7.18.
In the case of `CN(Cc1cccc(C(F)(F)F)c1)C(=O)C(C)(CCN1CCN(S(C)(=O)=O)CC1)c1ccc(Cl)c(Cl)c1` (stereo not drawn) [Example 127, 2-(3,4-Dichloro-phenyl)-4-(4-methanesulfonyl-piperazin-1-yl)-2,N-dimethyl-N-(3-trifluoromethyl-benzyl)-butyramide], the pKi was 7.11.
`CN(Cc1ccccc1Cl)C(=O)C(C)(CCN1CCCN(S(C)(=O)=O)CC1)c1ccc(Cl)c(Cl)c1` (stereo not drawn) [Example 121, N-(2-Chloro-benzyl)-2-(3,4-dichloro-phenyl)-4-(4-methanesulfonyl-[1,4]diazepan-1-yl)-2,N-dimethyl-butyramide] gave a pKi of 7.51.
`COc1cccc(CN(C)C(=O)C(C)(CCN2CCN(S(C)(=O)=O)[C@@H](C)C2)c2ccc(Cl)c(Cl)c2)c1` (stereo partly drawn) [Example 78, 2-(3,4-Dichloro-phenyl)-4-((S)-4-methanesulfonyl-3-methyl-piperazin-1-yl)-N-(3-methoxy-benzyl)-2,N-dimethyl-butyramide] showed a pKi of 6.21.
In the case of `CC(CCN1CCN(S(C)(=O)=O)CC1)(C(=O)NCc1ccccc1OC(F)(F)F)c1ccc(Cl)c(Cl)c1` (stereo not drawn) [Example 19, 2-(3,4-Dichloro-phenyl)-4-(4-methanesulfonyl-piperazin-1-yl)-2-methyl-N-(2-trifluoromethoxy-benzyl)-butyramide], the pKi was 6.37.
In the case of `CC(CCN1CCN(S(C)(=O)=O)CC1)(C(=O)N[C@H](CO)c1ccc(Cl)cc1)c1ccc(Cl)c(Cl)c1` (stereo partly drawn) [Example 131, N-[(S)-1-(4-Chloro-phenyl)-2-hydroxy-ethyl]-2-(3,4-dichloro-phenyl)-4-(4-methanesulfonyl-piperazin-1-yl)-2-methyl-butyramide], the pKi was 6.73.
With `C[C@H]1CN(CCC(C)(C(=O)N(C)Cc2cccc(F)c2)c2ccc(Cl)c(Cl)c2)CCN1S(C)(=O)=O` (stereo partly drawn) [Example 89, 2-(3,4-Dichloro-phenyl)-N-(3-fluoro-benzyl)-4-((S)-4-methanesulfonyl-3-methyl-piperazin-1-yl)-2,N-dimethyl-butyramide] the pKi was 6.58.
Compound `CC(CCN1CCN(S(C)(=O)=O)CC1)(C(=O)N[C@@H](CO)c1ccc(Cl)cc1)c1ccc(Cl)c(Cl)c1` (stereo partly drawn) [Example 130, N-[(R)-1-(4-Chloro-phenyl)-2-hydroxy-ethyl]-2-(3,4-dichloro-phenyl)-4-(4-methanesulfonyl-piperazin-1-yl)-2-methyl-butyramide] has a pKi of 7.40.
With `CN(Cc1ccc(F)c(C(F)(F)F)c1)C(=O)C(C)(CCN1CCCN(S(C)(=O)=O)CC1)c1ccc(Cl)c(Cl)c1` (stereo not drawn) [Example 106, 2-(3,4-Dichloro-phenyl)-N-(4-fluoro-3-trifluoromethyl-benzyl)-4-(4-methanesulfonyl-[1,4]diazepan-1-yl)-2,N-dimethyl-butyramide] the pKi was 8.04.
In the case of `COc1ccc(CN(C)C(=O)C(C)(CCN2CCN(S(C)(=O)=O)CC2)c2ccc(Cl)c(Cl)c2)cc1F` (stereo not drawn) [Example 25, 2-(3,4-Dichloro-phenyl)-N-(3-fluoro-4-methoxy-benzyl)-4-(4-methanesulfonyl-piperazin-1-yl)-2,N-dimethyl-butyramide], the pKi was 6.87.
With `CC(NC(=O)C(C)(CCN1CCCN(S(C)(=O)=O)CC1)c1ccc(Cl)c(Cl)c1)c1ccc(Cl)cc1` (stereo not drawn) [Example 119, N-[1-(4-Chloro-phenyl)-ethyl]-2-(3,4-dichloro-phenyl)-4-(4-methanesulfonyl-[1,4]diazepan-1-yl)-2-methyl-butyramide] the pKi was 6.92.
Work on `CC(CCN1CCN2C(CCS2(=O)=O)C1)(C(=O)N[C@@H](CO)c1ccc(Cl)cc1)c1ccc(Cl)c(Cl)c1` (stereo partly drawn) [Example 136, N-[(R)-1-(4-Chloro-phenyl)-2-hydroxy-ethyl]-2-(3,4-dichloro-phenyl)-4-(1,1-dioxo-hexahydro-1λ^6-thia-5,7a-diaza-inden-5-yl)-2-methyl-butyramide] yielded a pKi of 7.81.
Compound `CC(CCN1CCCN(S(C)(=O)=O)CC1)(C(=O)NCc1cccc(OC(F)F)c1)c1ccc(Cl)c(Cl)c1` (stereo not drawn) [Example 115, 2-(3,4-Dichloro-phenyl)-N-(3-difluoromethoxy-benzyl)-4-(4-methanesulfonyl-[1,4]diazepan-1-yl)-2-methyl-butyramide] has a pKi of 6.74.
In the case of `CN(Cc1ccc(C(F)(F)F)cc1)C(=O)C(C)(CCN1CCN(S(C)(=O)=O)CC1)c1ccc(Cl)c(Cl)c1` (stereo not drawn) [Example 28, 2-(3,4-Dichloro-phenyl)-4-(4-methanesulfonyl-piperazin-1-yl)-2,N-dimethyl-N-(4-trifluoromethyl-benzyl)-butyramide], the pKi was 7.35.
